Experimental data published in article PMC13086964, “USP7 deubiquitinase stabilizes FAN1 to support DNA crosslink repair and suppress CAG repeat expansion” (Nature Communications, 2026).
Where a SMILES comes first, the peptide text is derived from it. The star is where a group is joined. Cbz = O=C(OCc1ccccc1)*

Key:
GFP-FAN1 protein level = experiment: immunoblot of GFP-FAN1 protein levels, U2OS eGFP-FAN1 cells; type: cell-based, human; conditions: USP7-depleted U2OS eGFP-FAN1 cells, MG-132 10 μM for 6 h
Description: (§1) Fig. 3 USP7 deubiquitinates FAN1 controlling its protein levels. A RPE-1 parental and p53 KO cell lines were transfected with either non-targeting (Ctrl) or USP7 siRNA oligos. 48 h later, whole-cell lysates were analysed by immunoblotting. B Doxycycline-inducible U2OS^eGFP-FAN1 cells were transfected with either non-targeting (Ctrl) or USP7 siRNA oligos. 24 h later, GFP-FAN1 expression was induced with Dox (100 ng/ml) for 24 h and whole-cell lysates were analysed by immunoblotting. C Same cells as in B were induced with Dox (100 ng/ml). 24 h later, cells were either mock-treated with DMSO (–) or treated (+) with either FT671 or GNE-6640 (10 μM) for 24 h and whole-cell lysates were analysed by immunoblotting. D Same cells as in B were transfected with either non-targeting (Ctrl) or USP7 siRNA oligos. […] 24 h post induction, cells were either mock-treated (−) or treated (+) with MG-132 (10 μM) for 6 h and whole-cell lysates were analysed by immunoblotting. […] 24 h post induction, whole-cell lysates were analysed by immunoblotting. […] Inputs and recovered protein complexes were analysed by immunoblotting. […] Inputs and recovered protein complexes were analysed by immunoblotting. […] In (A–E), relative FAN1 protein levels were determined by quantification of FAN1 band intensity (normalized to GAPDH or Lamin B1 loading controls) with the ImageJ software. […]

FAN1 protein level = experiment: immunoblot of FAN1 protein levels, RPE-1 cells; type: cell-based, human; conditions: USP7-depleted RPE-1 cells, MG-132 10 μM for 6 h
Description: as §1

GFP-FAN1 = experiment: cycloheximide chase, FAN1 protein half-life; type: cell-based, human; conditions: U2OS eGFP-FAN1 cells, CHX 100 μg/ml, n = 3
Description: If not stated otherwise, cells were lysed in RIPA buffer (50 mM Tris-HCl, pH 7.5, 150 mM NaCl, 1% IGEPAL, 0.5% sodium deoxycholate, 0.1% SDS) supplemented with phosphatase inhibitors (20 mM NaF and 1 mM Na3VO4) and protease inhibitors (1 mM benzamidine and 0.1 mM PMSF), incubated with Benzonase (Merck) for at least 30 min at 4 °C, and clarified by centrifugation. Proteins were resolved by SDS-PAGE and transferred to nitrocellulose membranes. Immunoblots were performed with the indicated antibodies, and proteins were visualized using the Advansta WesternBright ECL reagent and the Fusion Solo S imaging system. Relative protein levels were determined by quantification of the protein of interest band intensity normalized to the loading control with the ImageJ software. […]
were determined by quantification of FAN1 band intensity (normalized to α-Tubulin) with the ImageJ software. […] 24 h post induction, cells were either mock-treated or treated with CHX (100 μg/ml) for the indicated time points and whole-cell lysates were analysed by immunoblotting (top panel). Relative GFP-FAN1 protein levels were determined by quantification of GFP-FAN1 band intensity (normalized to GAPDH) with the ImageJ software (bottom panel; siCtrl: black square; siUSP7#1: blue triangle; siUSP7#2: cyan inverted triangle). […] Inputs and recovered protein complexes were analysed by immunoblotting. […]

FAN1 = experiment: pull-down of MBP-His-FAN1 by biotin-tagged USP7 fragments; type: binding, human; conditions: biotin-tagged USP7 fragments 6 µg, MBP-His-FAN1 1 µg
Description: All plasmids were transformed into BL21(DE3)-pBirAcm cells. The cells were grown using a Large-scale EXpression (LEX) bioreactor at 37 °C. Once OD600 reached 0.7, the temperature was reduced to 15 °C. At OD600 0.8-1, expression of biotinylated proteins was induced by adding 25 mg/L biotin and 0.5 mM isopropyl β-d-1-thiogalactopyranoside (IPTG), and growth continued overnight. Cell cultures were harvested by centrifugation at 6500 g, 10 min, 10 °C (JLA8.1000). Pellets were flash-frozen in liquid nitrogen and stored at −80 °C prior to purification. Cell pellets were thawed, diluted with pre-chilled resuspension buffer (20 mM HEPES pH7.4, 500 mM NaCl, 5% (v/v) glycerol, 1 mM TCEP) and supplemented with 3 μg/ml benzonase, 2 mM MgSO4 and 0.8 mM PMSF/benzamidine-HCl. The mixture was homogenized and lysed by sonication, 60 cycles of 5 s pulse followed by 7.5 s rest. Cell lysates were clarified by centrifugation at 40000 g, 1 hr, 10 °C (JLA16.250). […] Protein purity was analysed by SDS-PAGE and identity was confirmed by mass spectrometry. […]
Transformed clones of chemocompetent BL21 bacteria were picked and inoculated in LB medium supplemented with 50 μg/ml kanamycin, subsequently incubated at 37 °C overnight under agitation at 250 rpm. […] Purity of the protein was assessed by boiling in SDS sample buffer and separating by SDS-PAGE followed by staining using Coomassie Blue. […]

CC(C)C[C@@H](C=O)NC(=O)[C@H](CC(C)C)NC(=O)[C@H](CC(C)C)NC(=O)OCc1ccccc1 [MG132] (Cbz-Leu-Leu-Leu-aldehyde)
FAN1 levels with proteasome inhibitor (GFP-FAN1 protein level): FAN1 levels were restored | FAN1 levels with proteasome inhibitor (FAN1 protein level): FAN1 levels were restored

C[C@@H]1C[C@@H]([C@H](O)CC2CC(=O)NC(=O)C2)C(=O)[C@@H](C)C1 [CHX, cycloheximide]
FAN1 protein half-life (GFP-FAN1): reduced protein half-life

TRAF domain: purified recombinant biotin-tagged USP7 fragment
binding of USP7 domain to FAN1 in vitro (FAN1): strongest
